Among the test systems are BT-549 breast; HOP-92 NSCLC; HT29 colon; MALME-3M melanoma; MCF7 breast; MDA-MB-231 breast; MOLT-4 leukemia; NCI-H226 lung; NCI-H460 lung; UACC-257 melanoma.
What all share (assay): growth of human tumour cells (NCI), 48 h

Structures are written as SMILES.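 Test compounds were applied to cells in 96-well plates for 48 hours at 5 doses. GI50 marks 50% less growth. TGI denotes the concentration required for complete inhibition of growth.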 A value given as a limit tells only on which side of the number the result lay.

Turning to `COc1ccc2c(c1)c(-c1nc(-c3c[nH]c4ncccc34)cs1)cn2CCCN1CCOCC1`, the GI50 in the experiment on BT-549 breast is 2 µM; with HOP-92 NSCLC, 2.42 µM; with HT29 colon, 2.22 µM; in the experiment on MALME-3M melanoma it was 1.39 µM; with MCF7 breast, 1.43 µM; with MDA-MB-231 breast, 1.86 µM. Besides, the GI50 is 1.85 µM with MOLT-4 leukemia, 3.1 µM with NCI-H226 lung, 2.54 µM in the experiment with NCI-H460 lung and 2.04 µM in the experiment on UACC-257 melanoma. The TGI in the experiment with BT-549 breast stood at 5.87 µM; in the experiment with HOP-92 NSCLC it was 6.82 µM; in the experiment with HT29 colon it was 6.4 µM; with MALME-3M melanoma, 3.14 µM; in the experiment with MCF7 breast it was 8.83 µM; in the experiment with MDA-MB-231 breast, 4.54 µM. Moreover, the TGI was found to be 4.4 µM with MOLT-4 leukemia, 15.9 µM with NCI-H226 lung, 6.6 µM with NCI-H460 lung and 3.81 µM in the experiment on UACC-257 melanoma.

For the compound `CC(=O)ON1CCCC(P(=O)(OCOC(=O)C(C)(C)C)OCOC(=O)C(C)(C)C)C1=O` (stereo not given), the GI50 in the experiment on BT-549 breast is 0.559 µM; in the experiment on HOP-92 NSCLC, 0.187 µM; with HT29 colon, 0.305 µM; in the experiment on MALME-3M melanoma, 0.453 µM; in the experiment with MCF7 breast, 0.4 µM; with MDA-MB-231 breast, 0.446 µM. In addition, the GI50 is 0.511 µM in the experiment with MOLT-4 leukemia, 0.949 µM with NCI-H226 lung, 0.959 µM with NCI-H460 lung and 2.41 µM in the experiment on UACC-257 melanoma. Further, the TGI is 5.1 µM in the experiment on BT-549 breast; 1.82 µM in the experiment with HOP-92 NSCLC; 3.68 µM in the experiment on HT29 colon; 6.63 µM with MALME-3M melanoma; 2 µM in the experiment with MCF7 breast; 5.04 µM in the experiment with MDA-MB-231 breast. The TGI in the experiment on MOLT-4 leukemia is 3.65 µM; in the experiment with NCI-H226 lung it was 7.2 µM; with NCI-H460 lung, 4.71 µM; with UACC-257 melanoma, 19.5 µM.

As to `COc1ccc(OC)c(NCC(=O)n2nc(/C=C\c3ccc(O)c(OC)c3)cc2/C=C\c2ccc(O)c(OC)c2)c1`, the GI50 with BT-549 breast is 1.44 µM; with HOP-92 NSCLC it was 4.76 µM; in the experiment with HT29 colon it was 1.73 µM; in the experiment on MALME-3M melanoma it was 3.01 µM; in the experiment on MCF7 breast it was 1.61 µM; with MDA-MB-231 breast, 3.02 µM. For the same compound, the GI50 is 1.11 µM in the experiment on MOLT-4 leukemia, 3.16 µM in the experiment on NCI-H226 lung, 2.59 µM in the experiment with NCI-H460 lung and 3.28 µM in the experiment with UACC-257 melanoma. The TGI is 5.7 µM with BT-549 breast; 53.8 µM in the experiment on HOP-92 NSCLC; 3.81 µM in the experiment on HT29 colon; 14.6 µM with MALME-3M melanoma; 10.4 µM in the experiment with MCF7 breast; over 100 µM in the experiment with MDA-MB-231 breast. Besides, the TGI in the experiment on MOLT-4 leukemia came to 9.21 µM; with NCI-H226 lung it was 16.1 µM; with NCI-H460 lung, 9.84 µM; with UACC-257 melanoma, 14.8 µM.

Turning to `CSC1=Nc2c(c(C)c(C)n2COC(CO)CO)C2=NC(=O)CN12`, the GI50 in the experiment on BT-549 breast, in the experiment on HOP-92 NSCLC, in the experiment on HT29 colon, with MALME-3M melanoma, in the experiment on MCF7 breast and in the experiment on MDA-MB-231 breast was over 100 µM in each case. The GI50 with MOLT-4 leukemia, in the experiment with NCI-H226 lung, with NCI-H460 lung and with UACC-257 melanoma was over 100 µM in each case. The TGI in the experiment on BT-549 breast, with HOP-92 NSCLC, with HT29 colon, with MALME-3M melanoma, with MCF7 breast and in the experiment on MDA-MB-231 breast was over 100 µM each time. In addition, the TGI in the experiment with MOLT-4 leukemia, in the experiment on NCI-H226 lung, with NCI-H460 lung and in the experiment with UACC-257 melanoma was over 100 µM throughout.

Regarding `O=C1/C(=C\c2ccccc2)CN(C(=O)CCN2CCCCC2)C/C1=C/c1ccccc1`, the TGI came out at 1.94 µM in the experiment on BT-549 breast; 10.2 µM in the experiment on HOP-92 NSCLC; 2.03 µM in the experiment with HT29 colon; 5.44 µM in the experiment with MALME-3M melanoma; 1.86 µM in the experiment with MCF7 breast; 3.29 µM in the experiment on MDA-MB-231 breast. For the same compound, the TGI amounted to 0.714 µM with MOLT-4 leukemia, 16.5 µM in the experiment with NCI-H226 lung, 5.96 µM in the experiment with NCI-H460 lung and 3.52 µM in the experiment on UACC-257 melanoma.

Take `O=C(OCc1ccc2c(Br)cc(Br)c(O)c2n1)c1cc2ccccc2[nH]1`: the GI50 is 0.706 µM in the experiment on BT-549 breast; 0.548 µM with HOP-92 NSCLC; 0.408 µM with HT29 colon; 1.38 µM in the experiment on MALME-3M melanoma; 0.434 µM in the experiment on MCF7 breast; 0.963 µM in the experiment on MDA-MB-231 breast. The GI50 in the experiment on MOLT-4 leukemia was 0.488 µM; with NCI-H226 lung, 1.42 µM; in the experiment with NCI-H460 lung it was 1.53 µM; in the experiment with UACC-257 melanoma it was 1.36 µM. The TGI in the experiment with BT-549 breast stood at 2.06 µM; in the experiment on HOP-92 NSCLC, 2.15 µM; in the experiment on HT29 colon, 1.59 µM; in the experiment with MALME-3M melanoma, 2.77 µM; in the experiment with MCF7 breast, 2.07 µM; in the experiment with MDA-MB-231 breast it was 2.44 µM. Also, the TGI is 2.49 µM in the experiment on MOLT-4 leukemia, 3.11 µM in the experiment on NCI-H226 lung, 3.33 µM in the experiment with NCI-H460 lung and 3.38 µM in the experiment on UACC-257 melanoma.

In the case of `O=C1Oc2ccccc2C(=O)/C1=C1/C=C(c2ccccc2)SS1`, the TGI with BT-549 breast, with HOP-92 NSCLC, in the experiment on HT29 colon, with MALME-3M melanoma, with MCF7 breast and in the experiment with MDA-MB-231 breast was over 100 µM throughout. Moreover, the TGI was 71.8 µM with MOLT-4 leukemia, over 100 µM in the experiment on NCI-H226 lung, over 100 µM in the experiment on NCI-H460 lung and over 100 µM in the experiment on UACC-257 melanoma.

Regarding `O=C(/C=C/C12c3ccccc3C(c3ccccc31)C1C(=O)NC(=O)C12)c1ccccn1` (stereo not given), the GI50 in the experiment on BT-549 breast was 1.82 µM; in the experiment with HOP-92 NSCLC, 1.98 µM; in the experiment with HT29 colon it was 1.86 µM; in the experiment with MALME-3M melanoma, 2.14 µM; in the experiment with MCF7 breast it was 0.562 µM; in the experiment with MDA-MB-231 breast it was 1.49 µM. In addition, the GI50 was 2.11 µM in the experiment with MOLT-4 leukemia, 2.98 µM with NCI-H226 lung, 1.08 µM in the experiment with NCI-H460 lung and 1.88 µM in the experiment with UACC-257 melanoma. The TGI in the experiment with BT-549 breast is 3.69 µM; with HOP-92 NSCLC, 4.54 µM; with HT29 colon, 4.56 µM; in the experiment with MALME-3M melanoma it was 5.05 µM; with MCF7 breast, 2.43 µM; in the experiment with MDA-MB-231 breast it was 4.44 µM. For the same compound, the TGI in the experiment with MOLT-4 leukemia worked out at 9.55 µM; with NCI-H226 lung, 11.7 µM; in the experiment with NCI-H460 lung, 4.11 µM; in the experiment with UACC-257 melanoma, 3.56 µM.

Source of the values: PubChem BioAssay (NCI).
